Results published in US10214546B2, “Btk inhibitors” (MERCK SHARP & DOHME CORP., priority 2014, dated 2019).
Read-outs that look alike come from different tables or passages of the source.

Legend:
[1] = target: BTK enzyme (recombinant full-length BTK, hBTK) (Homo sapiens (Human), UniProt Q06187); assay: BTK enzymatic activity LANCE TR-FRET assay; assay type: biochemical; conditions: 50 pM hBTK, 25 μM ATP, 2 μM biotin-A5-peptide; compound range 1 μM to 0.017 nM; read-out: BTK binding IC50
Method: Btk Enzyme Activity Assay Methods
BTK enzymatic activity was determined with the LANCE (Lanthanide Chelate Excite) TR-FRET (Time-resolved fluorescence resonance energy transfer) assay. […] Phosphorylation reactions were allowed to proceed for 120 minutes. […] After 60 minutes incubation with detection reagents, reaction plates were read on a PerkinElmer EnVision plate reader using standard TR-FRET protocol. […] IC50 values were determined by 4 parameter robust fit of TR-FRET ratio values vs. (Log10) compound concentrations.

[2] = test system: adenosine uptake into HeLa cells; assay: [3H]Adenosine uptake assay in HeLa cells; assay type: cell-based; conditions: [3H]adenosine accumulation in HeLa cells, compound range 10 μM to 0.032 nM, read-out: ADU inhibition IC50
Method: Compounds are also screened in an adenosine uptake functional cellular assay using the protocol described below:
[^3H]Adenosine Uptake Assay Methods
Adenosine uptake activity was determined by monitoring the accumulation of tritiated adenosine into HeLa cells (ATCC catalog # CCL-2) using a PMT-based radiometric detection instrument. In this assay, the potency (IC50) of each compound was determined from a ten point (1:3 serial dilution; final compound concentration range in assay from 10 µM to […]) titration curve using the following outlined procedure. To each well of a 96-well CytoStar-T scintillating microplate (Perkin Elmer Catalog # RPNQ0163), 25 000 HeLa cells in 100 µL of growth medium comprising: Minimum Essential Media (Life Technologies Catalog #11095-080)+10% (v/v) foetal bovine serum (FBS; Sigma Aldrich Catalog # F2442) was added. These cells were incubated overnight at 37° C. in a humidified atmosphere with 5% (v/v) CO2. After this time the growth medium was removed and replaced with 40 μL assay medium comprising: Hanks balanced salts solution (HBSS; Thermo Fisher Catalog # SH30268.01)+5% (v/v) FBS. Compound stock solutions in DMSO were diluted in assay medium to 2.5× final compound concentration maintaining a constant DMSO concentration of 0.25% (v/v). 40 μL of compound in assay medium was dispensed into individual wells of the Cytostar-T plates and the plates were incubated for 30 minutes under ambient laboratory conditions. Following this incubation, 20 μL of 500 nM [^3H] adenosine (American Radiolabeled Chemicals Inc. […] The amount of radiolabel accumulation was then determined using a Perkin Elmer Topcount NXT microplate reader. In brief, HeLa cells adhere to the bottom of the Cytostar-T plate, uptake of [^3H]adenosine into these cells brings the radiolabel into sufficient proximity to excite the scintillant in the base of the plates. These events are captured by single PMT, time-resolved coincidence counting. IC50 values were determined by 4 parameter robust fit of counts per second values vs. (Log10) compound concentrations.

Chain of BTK enzyme (recombinant full-length BTK, hBTK) (Q06187 whole entry): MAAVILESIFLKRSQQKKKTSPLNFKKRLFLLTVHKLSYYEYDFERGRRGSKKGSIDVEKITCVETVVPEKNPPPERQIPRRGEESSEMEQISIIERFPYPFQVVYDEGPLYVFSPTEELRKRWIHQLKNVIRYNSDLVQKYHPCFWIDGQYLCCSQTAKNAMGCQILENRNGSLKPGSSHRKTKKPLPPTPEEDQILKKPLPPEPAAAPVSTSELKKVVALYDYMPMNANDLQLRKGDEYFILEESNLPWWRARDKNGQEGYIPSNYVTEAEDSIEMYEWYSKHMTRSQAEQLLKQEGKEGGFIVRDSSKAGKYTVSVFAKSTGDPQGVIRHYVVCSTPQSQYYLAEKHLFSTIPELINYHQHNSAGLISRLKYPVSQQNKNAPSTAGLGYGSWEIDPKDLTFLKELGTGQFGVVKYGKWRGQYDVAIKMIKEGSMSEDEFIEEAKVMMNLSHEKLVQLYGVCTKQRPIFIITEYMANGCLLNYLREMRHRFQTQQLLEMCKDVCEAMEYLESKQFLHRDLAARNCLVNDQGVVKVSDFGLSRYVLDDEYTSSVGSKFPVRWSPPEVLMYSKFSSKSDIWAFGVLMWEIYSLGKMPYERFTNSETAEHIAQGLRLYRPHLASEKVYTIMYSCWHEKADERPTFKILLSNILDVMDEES

Structure (SMILES)	IC50 [1]	IC50 ([2]; Homo sapiens, HeLa)	IC50 [2]
CC(C)(c1cccc([C@](C)(O)c2ccc(-c3nc([C@@H]4CC[C@H]5CCC(=O)N5C4)n4ccnc(N)c34)cc2)c1)C(F)(F)F [Example 110, (6R,8aS)-6-[8-amino-1-(4-{(1R)-1-hydroxy-1-[3-(2,2,2-trifluoro-1,1-dimethylethyl)phenyl]ethyl}phenyl)imidazo[1,5-a]pyrazin-3-yl]hexahydroindolizin-3(2H)-one]	0.95 nM	1700 nM	
CO[C@](C)(c1ccc(-c2nc([C@@H]3CC[C@H]4CCC(=O)N4C3)n3ccnc(N)c23)cc1)c1cccc(C(F)(F)F)c1 [Example 89, (6R,8aS)-6-[8-amino-1-(4-{(1R)-1-methoxy-1-[3-(trifluoromethyl)phenyl]ethyl}phenyl)imidazo [1,5-a]pyrazin-3-yl]hexahydroindolizin-3(2H)-one]	1000 nM	3490 nM	
COc1cccc([C@@](C)(O)c2ccc(-c3nc([C@@H]4CC[C@H]5CCC(=O)N5C4)n4ccnc(N)c34)cc2)c1 [Example 44, (6R,8aS)-6-(8-amino-1-{4-[(1S)-1-hydroxy-1-(3-methoxyphenyl)ethyl]phenyl}imidazo[1,5-a]pyrazin-3-yl)hexahydroindolizin-3(2H)-one]	81.4 nM	1780 nM	
CC(O)(c1cccc(C(F)(F)F)c1)c1ccc(-c2nc([C@@H]3CC[C@H]4CCC(=O)N4C3)n3ccnc(N)c23)cc1F (stereo partly drawn) [Example 54, (6R,8aS)-6-[8-amino-1-(3-fluoro-4-{1-hydroxy-1-[3-(trifluoromethyl)phenyl]ethyl}phenyl)imidazo [1,5-a]pyrazin-3-yl]hexahydroindolizin-3(2H)-one]	1000 nM		473 nM
C[C@@](O)(c1ccc(-c2nc([C@@H]3CC[C@H]4CCC(=O)N4C3)n3ccnc(N)c23)cc1)c1ccccc1F [Example 69, (6R,8aS)-6-(8-amino-1-{4-[(1R)-1-(2-fluorophenyl)-1-hydroxyethyl]phenyl}imidazo[1,5-a]pyrazin-3-yl)hexahydroindolizin-3(2H)-one]	4.9 nM	6470 nM	
CC(C)C(C)(O)c1ccc(-c2nc([C@@H]3CC[C@H]4CCC(=O)N4C3)n3ccnc(N)c23)cc1 (stereo partly drawn) [Example 14, (6R,8aS)-6-{8-amino-1-[4-(1-hydroxy-1,2-dimethylpropyl)phenyl]imidazo[1,5-a]pyrazin-3-yl}hexahydroindolizin-3(2H)-one]	256 nM	6950 nM	
COc1cc(-c2nc([C@@H]3CC[C@H]4CCC(=O)N4C3)n3ccnc(N)c23)ccc1[C@](C)(O)c1cccc(C2CC2)c1 [Example 98, (6R,8aS)-6-(8-amino-1-{4-[(1R)-1-(3-cyclopropylphenyl)-1-hydroxyethyl]-3-methoxyphenyl}imidazo [1,5-a]pyrazin-3-yl)hexahydroindolizin-3(2H)-one]	0.28 nM	3170 nM	

Further lines, results first:

IC50 [1]	IC50 ([2]; Homo sapiens, HeLa)	IC50 [2]	Structure (SMILES)
25 nM	4760 nM		C[C@@](O)(c1ccc(-c2nc([C@@H]3CC[C@H]4CCC(=O)N4C3)n3ccnc(N)c23)cc1)c1cccc(C(F)(F)F)n1 [Example 138, (6R,8aS)-6-[8-amino-1-(4-{(1R)-1-hydroxy-1-[6-(trifluoromethyl)pyridin-2-yl]ethyl}phenyl)imidazo [1,5-a]pyrazin-3-yl]hexahydroindolizin-3(2H)-one]
0.43 nM	2800 nM		C[C@@](O)(c1ccc(-c2nc([C@@H]3CC[C@H]4C(C(F)(F)F)CC(=O)N4C3)n3ccnc(N)c23)cc1)c1cccc(C(F)F)c1 (stereo partly drawn) [Example 182, (1R,6R,8aS)-6-[8-amino-1-(4-{(1R)-1-[3-(difluoromethyl)phenyl]-1-hydroxyethyl}phenyl)imidazo[1,5-a]pyrazin-3-yl]-1-(trifluoromethyl) hexahydroindolizin-3(2H)-one]
1000 nM	464 nM		C[C@](O)(c1ccc(-c2nc([C@@H]3CC[C@H]4CCC(=O)N4C3)n3ccnc(N)c23)cc1)c1ccnc(C(F)(F)F)c1 [Example 154, (6R,8aS)-6-[8-amino-1-(4-{(1S)-1-hydroxy-1-[2-(trifluoromethyl)pyridin-4-yl]ethyl}phenyl)imidazo [1,5-a]pyrazin-3-yl]hexahydroindolizin-3(2H)-one]
